Measured values published in ChEMBL document CHEMBL6115036, “Exploration of membrane-active cephalosporin derivatives as potent antibacterial agents against Staphylococcus aureus biofilms and persisters” (Eur J Med Chem, 2025).
The source made the active and inactive calls. No cut-off for these calls is given here.

What was measured:
[1] = system: Staphylococcus aureus; test: Inhibition of biofilm formation in Staphylococcus aureus assessed as punctate distribution at 32 times MIC incubated for 24 hrs by CLSM analysis; format: functional, organism-based
[2] = Hemolytic activity in sheep red blood cells incubated for 1 hr; format: toxicity, cell-based, Ovis aries, Erythrocyte
[3] = system: Staphylococcus aureus; test: Antibacterial activity against Staphylococcus aureus infected in Kunming mouse model of subcutaneous abscess assessed as surviving bacteria in skin tissue at 10 mg/kg, sc measured after 48 hrs relative to control; format: functional
[4] = system: Escherichia coli; test: Antimicrobial activity against Escherichia coli incubated for 16 to 18 hrs by broth dilution assay; format: functional; conditions: time 16-18 hrs
[5] = system: Staphylococcus aureus; test: Inhibition of biofilm formation in Staphylococcus aureus at 16 times MIC incubated for 24 hrs; format: functional, organism-based
[6] = system: Staphylococcus aureus; test: Inhibition of metabolic activity in Staphylococcus aureus incubated for 6 hrs by Alamar blue assay; format: functional, organism-based
[7] = Toxicity in Kunming mouse model of subcutaneous abscess infected with Staphylococcus aureus assessed as damage in liver at 5 to 10 mg/kg, sc measured after 48 hrs by H and E staining based analysis; format: organism-based; conditions: in vivo, dose 5-10 mg/kg
[8] = system: Staphylococcus aureus; test: Disruption of cell membrane in Staphylococcus aureus assessed as protein leakage measured after 2 hrs by fluorescence based analysis; format: functional, organism-based; conditions: dose 8-32 µg/ml
[9] = system: Staphylococcus aureus; test: Antibacterial activity against Staphylococcus aureus in presence of 50% FBS; format: functional, organism-based
[10] = system: Staphylococcus aureus; test: Induction of resistance development in drug-resistant Staphylococcus aureus at sub-MIC measured after 20 passages in presence of ampicillin sodium; format: functional, organism-based
[11] = Cytotoxicity against HUVEC cells incubated for 24 hrs by CCK8 assay; format: toxicity, cell-based; conditions: human
[12] = system: Staphylococcus aureus; test: Antibacterial activity against Staphylococcus aureus assessed as inhibition of bacterial growth at stationary phase at 32 times MIC incubated for 4 hrs; format: functional, organism-based
[13] = system: Staphylococcus aureus; test: Induction of resistance development in drug-resistant Staphylococcus aureus at sub-MIC measured after 20 passages in presence of levofloxacin; format: functional, organism-based
[14] = system: Staphylococcus aureus; test: Induction of resistance development in drug-resistant Staphylococcus aureus at sub-MIC measured after 20 passages in presence of vancomycin; format: functional, organism-based
[15] = system: Staphylococcus aureus; test: Inhibition of biofilm formation in Staphylococcus aureus assessed as reduction in number of live bacterial count at 16 times MIC incubated for 24 hrs; format: functional
[16] = Toxicity in Kunming mouse model of subcutaneous abscess infected with Staphylococcus aureus assessed as damage in spleen at 5 to 10 mg/kg, sc measured after 48 hrs by H and E staining based analysis; format: organism-based; conditions: in vivo, dose 5-10 mg/kg
[17] = system: Staphylococcus aureus; test: Antibacterial activity against Staphylococcus aureus infected in Kunming mouse model of subcutaneous abscess assessed as decrease in inflammation in skin tissue at 5 mg/kg, sc measured after 48 hrs by H and E staining based analysis; format: functional, organism-based
[18] = system: Enterococcus faecalis; test: Antimicrobial activity against Enterococcus faecalis incubated for 16 to 18 hrs by broth dilution assay; format: functional; conditions: time 16-18 hrs
[19] = system: Staphylococcus aureus; test: Induction of intracellular ROS accumulation in Staphylococcus aureus incubated overnight by DCFH-DA dye based analysis; format: functional, organism-based
[20] = system: Staphylococcus aureus; test: Bactericidal activity against Staphylococcus aureus measured for 3 to 6 hrs in presence of 50% sheep plasma; format: functional, organism-based; conditions: time 3-6 hrs
[21] = system: Staphylococcus aureus; test: Bactericidal activity against rifampicin-induced persistant Staphylococcus aureus at 32 times MIC measured for 10 hrs; format: functional, organism-based
[22] = system: Staphylococcus aureus; test: Antibacterial activity against Staphylococcus aureus infected in Kunming mouse model of subcutaneous abscess assessed as reduction in number of bacteria in skin tissue at 5 to 10 mg/kg, sc measured after 48 hrs; format: functional, organism-based; conditions: dose 5-10 mg/kg
[23] = system: Staphylococcus aureus; test: Antimicrobial activity against Staphylococcus aureus incubated for 16 to 18 hrs by broth dilution assay; format: functional; conditions: time 16-18 hrs
[24] = system: Staphylococcus aureus; test: Induction of resistance development in drug-resistant Staphylococcus aureus at sub-MIC measured after 20 passages in presence of cefuroxime sodium; format: functional, organism-based
[25] = Toxicity in Kunming mouse model of subcutaneous abscess infected with Staphylococcus aureus assessed as histopathological abnormalities in lung at 5 to 10 mg/kg, sc measured after 48 hrs by H and E staining based analysis; format: organism-based; conditions: in vivo, dose 5-10 mg/kg
[26] = system: Stenotrophomonas maltophilia; test: Antimicrobial activity against Stenotrophomonas maltophilia incubated for 16 to 18 hrs by broth dilution assay; format: functional; conditions: time 16-18 hrs
[27] = system: Staphylococcus aureus; test: Antibacterial activity against Staphylococcus aureus infected in Kunming mouse model of subcutaneous abscess assessed as decrease in neutrophil level in skin tissue at 5 mg/kg, sc measured after 48 hrs by H and E staining based analysis; format: functional, organism-based
[28] = system: Staphylococcus aureus; test: Induction of inner membrane permeability in Staphylococcus aureus assessed as increase in fluorescence intensity at 32 ug/ml measured for 20 mins by PI dye based analysis; format: functional, organism-based; conditions: dose 32.0 µg/ml
[29] = system: Staphylococcus aureus; test: Disruption of cell membrane in Staphylococcus aureus assessed as nucleic acid leakage measured after 2 hrs by fluorescence based analysis; format: functional, organism-based; conditions: dose 8-32 µg/ml
[30] = system: Staphylococcus aureus; test: Bactericidal activity against Staphylococcus aureus assessed as reduction in bacterial colony count at 4 to 8 times MIC incubated for 8 hrs by time kill assay; format: functional, organism-based
[31] = Toxicity in Kunming mouse model of subcutaneous abscess infected with Staphylococcus aureus assessed as damage in heart at 5 to 10 mg/kg, sc measured after 48 hrs by H and E staining based analysis; format: organism-based; conditions: in vivo, dose 5-10 mg/kg
[32] = Toxicity in Kunming mouse model of subcutaneous abscess infected with Staphylococcus aureus assessed as histopathological abnormalities in liver at 5 to 10 mg/kg, sc measured after 48 hrs by H and E staining based analysis; format: organism-based; conditions: in vivo, dose 5-10 mg/kg
[33] = system: Staphylococcus aureus; test: Induction of cytoplasmic membrane depolarization in Staphylococcus aureus assessed as increase in fluorescence intensity at 32 ug/ml measured for 20 mins by DiSC3(5) dye based analysis; format: functional, organism-based; conditions: dose 32.0 µg/ml
[34] = Toxicity in Kunming mouse model of subcutaneous abscess infected with Staphylococcus aureus assessed as damage in lung at 5 to 10 mg/kg, sc measured after 48 hrs by H and E staining based analysis; format: organism-based; conditions: in vivo, dose 5-10 mg/kg
[35] = Cytotoxicity against human HeLa cells incubated for 24 hrs by CCK8 assay; format: toxicity, cell-based
[36] = system: Staphylococcus aureus; test: Induction of resistance development in drug-resistant Staphylococcus aureus at sub-MIC measured after 20 passages in presence of ciprofloxacin; format: functional, organism-based
[37] = Toxicity in Kunming mouse model of subcutaneous abscess infected with Staphylococcus aureus assessed as histopathological abnormalities in kidney at 5 to 10 mg/kg, sc measured after 48 hrs by H and E staining based analysis; format: organism-based; conditions: in vivo, dose 5-10 mg/kg
[38] = Toxicity in Kunming mouse model of subcutaneous abscess infected with Staphylococcus aureus assessed as histopathological abnormalities in heart at 5 to 10 mg/kg, sc measured after 48 hrs by H and E staining based analysis; format: organism-based; conditions: in vivo, dose 5-10 mg/kg
[39] = system: Staphylococcus aureus; test: Induction of resistance development in drug-resistant Staphylococcus aureus at sub-MIC measured after 20 passages in presence of norfloxacin; format: functional, organism-based
[40] = system: Staphylococcus aureus; test: Induction of resistance development in Staphylococcus aureus at sub-MIC measured after 20 passages; format: functional, organism-based
[41] = Toxicity in Kunming mouse model of subcutaneous abscess infected with Staphylococcus aureus assessed as damage in kidney at 5 to 10 mg/kg, sc measured after 48 hrs by H and E staining based analysis; format: organism-based; conditions: in vivo, dose 5-10 mg/kg
[42] = system: Staphylococcus aureus; test: Induction of resistance development in drug-resistant Staphylococcus aureus at sub-MIC measured after 20 passages in presence of linezolid; format: functional, organism-based
[43] = system: Staphylococcus aureus; test: Inhibition of biofilm formation in Staphylococcus aureus assessed as decrease in bacterial count at 32 times MIC incubated for 24 hrs by CLSM analysis; format: functional, organism-based
[44] = system: Staphylococcus aureus; test: Antibacterial activity against rifampicin-induced persistant Staphylococcus aureus assessed as decrease in CFU at 16 times MIC measured for 10 hrs; format: functional
[45] = Toxicity in Kunming mouse model of subcutaneous abscess infected with Staphylococcus aureus assessed as histopathological abnormalities in spleen at 5 to 10 mg/kg, sc measured after 48 hrs by H and E staining based analysis; format: organism-based; conditions: in vivo, dose 5-10 mg/kg
[46] = system: Staphylococcus aureus; test: Induction of resistance development in drug-resistant Staphylococcus aureus at sub-MIC measured after 20 passages in presence of rifampicin; format: functional, organism-based
[47] = system: Staphylococcus aureus; test: Antibacterial activity against Staphylococcus aureus infected in Kunming mouse model of subcutaneous abscess assessed as reduction in bacterial load in skin tissue at 10 mg/kg, sc measured after 48 hrs relative to control; format: functional; set-up: scale not given: the % may be the effect or the level left
[48] = system: Staphylococcus aureus; test: Antibacterial activity against Staphylococcus aureus in presence of 50% sheep plasma; format: functional, organism-based

Compound: CCCCCCCCCCCCCCCC[n+]1ccc(-c2cc[n+](CC3=C(C(=O)[O-])N4C(=O)[C@@H](NC(=O)Cc5ccccc5)[C@H]4SC3)cc2)cc1.O=C([O-])C(F)(F)F
- inhibition [1]: Active
- HC50 at 1 h [2]: 112 µg/mL
- Activity [3]: 0.13%
- MIC [4]: 128 µg/mL
- inhibition [5]: Active; Compound Activity Better Than Vancomycin, Rifampicin And Cephalothin
- inhibition [6]: Dose-dependent-effect
- Activity [7]: Non-toxic
- Activity [8]: Dose-dependent-effect
- Activity [9]: Active; Mic Value Of Compound In Serum Was Equal To Mic In Mhb Medium
- Activity [10]: inactive
- CC50 at 24 h [11]: 15.7 µg/mL
- inhibition [12]: Active
- Activity [13]: inactive
- Activity [14]: inactive
- Activity [15]: ~1 10^8CFU/ml
- Activity [16]: Non-toxic
- Activity [17]: Active
- MIC [18]: 32 µg/mL
- Activity [19]: Dose-dependent-effect
- Activity [20]: Active
- Activity [21]: Active
- Activity [22]: Active
- MIC [23]: 4 µg/mL
- Activity [24]: inactive
- Activity [25]: Non-toxic
- MIC [26]: 128 µg/mL
- Activity [27]: Active
- Activity [28]: Active
- Activity [29]: Dose-dependent-effect
- Activity [30]: Active
- Activity [31]: Non-toxic
- Activity [32]: Non-toxic
- Activity [33]: Active
- Activity [34]: Non-toxic
- CC50 at 24 h [35]: 34.7 µg/mL
- Activity [36]: inactive
- Activity [37]: Non-toxic
- Activity [38]: Non-toxic
- Activity [39]: inactive
- Activity [40]: inactive
- Activity [41]: Non-toxic
- Activity [42]: inactive
- inhibition [43]: Active
- Activity [44]: ~1 10^5CFU/ml
- Activity [45]: Non-toxic
- Activity [46]: inactive
- Activity [47]: 99.87%
- Activity [48]: Active; Mic Value Of Compound In Plasma Was Equal To Mic In Mhb Medium
